Laboratory results reported in ChEMBL document CHEMBL5724914, “Linking interpersonal differences in gut microbiota composition and drug biotransformation activity” (2024).
Blank lines part the entries; values can stand above or below the molecule they belong to.

Experiments:
[1] = (§1) The drug is tested on WLS-370 corresponding to human gut metagenome with ENA study accession number: PRJEB37062 and ENA sample accession number: ERS12561793 for biotransformation under anaerobic condition. The drug concentrations were measured over 9 timepoints collected between 0 and 24 hours of incubation by liquid-chromatography-coupled mass spectrometry (LC–MS); conditions: 2 µM
[2] = as §1, with “WLS-350” for “WLS-370”, “ERS12561789” for “ERS12561793”; conditions: 2 µM
[3] = as §1, with “WLS-310” for “WLS-370”, “ERS12561785” for “ERS12561793”; conditions: 2 µM
[4] = as §1, with “WLS-240” for “WLS-370”, “ERS12561773” for “ERS12561793”; conditions: 2 µM
[5] = as §1, with “WLS-220” for “WLS-370”, “ERS12561769” for “ERS12561793”; conditions: 2 µM
[6] = as §1, with “WLS-170” for “WLS-370”, “ERS12561762” for “ERS12561793”; conditions: 2 µM
[7] = as §1, with “WLS-098” for “WLS-370”, “ERS12561754” for “ERS12561793”; conditions: 2 µM
[8] = as §1, with “WLS-090” for “WLS-370”, “ERS12561753” for “ERS12561793”; conditions: 2 µM
[9] = as §1, with “WLS-086” for “WLS-370”, “ERS12561752” for “ERS12561793”; conditions: 2 µM
[10] = as §1, with “WLS-082” for “WLS-370”, “ERS12561751” for “ERS12561793”; conditions: 2 µM
[11] = as §1, with “WLS-077” for “WLS-370”, “ERS12561750” for “ERS12561793”; conditions: 2 µM
[12] = as §1, with “WLS-073” for “WLS-370”, “ERS12561749” for “ERS12561793”; conditions: 2 µM
[13] = as §1, with “WLS-069” for “WLS-370”, “ERS12561748” for “ERS12561793”; conditions: 2 µM
[14] = as §1, with “WLS-052” for “WLS-370”, “ERS12561747” for “ERS12561793”; conditions: 2 µM
[15] = as §1, with “WLS-039” for “WLS-370”, “ERS12561746” for “ERS12561793”; conditions: 2 µM
[16] = as §1, with “WLS-038” for “WLS-370”, “ERS12561745” for “ERS12561793”; conditions: 2 µM
[17] = as §1, with “WLS-027” for “WLS-370”, “ERS12561744” for “ERS12561793”; conditions: 2 µM
[18] = as §1, with “WLS-010” for “WLS-370”, “ERS12561743” for “ERS12561793”; conditions: 2 µM
[19] = as §1, with “WLS-007” for “WLS-370”, “ERS12561742” for “ERS12561793”; conditions: 2 µM
[20] = as §1, with “WLS-006” for “WLS-370”, “ERS12561741” for “ERS12561793”; conditions: 2 µM
[21] = human gut metagenome, 24 h, 2 µM
[22] = human gut metagenome, 24 h, 2 µM; remark: listed apart in the source
[23] = human gut metagenome, 24 h, 2 µM; remark: listed apart in the source
[24] = human gut metagenome, 24 h, 2 µM; remark: listed apart in the source
[25] = human gut metagenome, 24 h, 2 µM; remark: listed apart in the source
[26] = human gut metagenome, 24 h, 2 µM; remark: listed apart in the source
[27] = human gut metagenome, 24 h, 2 µM; remark: listed apart in the source
[28] = human gut metagenome, 24 h, 2 µM; remark: listed apart in the source
[29] = human gut metagenome, 24 h, 2 µM; remark: listed apart in the source
[30] = human gut metagenome, 24 h, 2 µM; remark: listed apart in the source
[31] = human gut metagenome, 24 h, 2 µM; remark: listed apart in the source
[32] = human gut metagenome, 24 h, 2 µM; remark: listed apart in the source
[33] = human gut metagenome, 24 h, 2 µM; remark: listed apart in the source
[34] = human gut metagenome, 24 h, 2 µM; remark: listed apart in the source
[35] = human gut metagenome, 24 h, 2 µM; remark: listed apart in the source
[36] = human gut metagenome, 24 h, 2 µM; remark: listed apart in the source
[37] = human gut metagenome, 24 h, 2 µM; remark: listed apart in the source
[38] = human gut metagenome, 24 h, 2 µM; remark: listed apart in the source
[39] = human gut metagenome, 24 h, 2 µM; remark: listed apart in the source
[40] = human gut metagenome, 24 h, 2 µM; remark: listed apart in the source
[41] = human gut metagenome, 24 h, 2 µM; remark: listed apart in the source
[42] = human gut metagenome, 24 h, 2 µM; remark: listed apart in the source
[43] = human gut metagenome, 24 h, 2 µM; remark: listed apart in the source
[44] = human gut metagenome, 24 h, 2 µM; remark: listed apart in the source
[45] = human gut metagenome, 24 h, 2 µM; remark: listed apart in the source
[46] = human gut metagenome, 24 h, 2 µM; remark: listed apart in the source
[47] = human gut metagenome, 24 h, 2 µM; remark: listed apart in the source
[48] = human gut metagenome, 24 h, 2 µM; remark: listed apart in the source
[49] = human gut metagenome, 24 h, 2 µM; remark: listed apart in the source
[50] = human gut metagenome, 24 h, 2 µM; remark: listed apart in the source
[51] = human gut metagenome, 24 h, 2 µM; remark: listed apart in the source
[52] = human gut metagenome, 24 h, 2 µM; remark: listed apart in the source
[53] = human gut metagenome, 24 h, 2 µM; remark: listed apart in the source
[54] = human gut metagenome, 24 h, 2 µM; remark: listed apart in the source
[55] = human gut metagenome, 24 h, 2 µM; remark: listed apart in the source
[56] = human gut metagenome, 24 h, 2 µM; remark: listed apart in the source
[57] = human gut metagenome, 24 h, 2 µM; remark: listed apart in the source
[58] = human gut metagenome, 24 h, 2 µM; remark: listed apart in the source
[59] = human gut metagenome, 24 h, 2 µM; remark: listed apart in the source
[60] = human gut metagenome, 24 h, 2 µM; remark: listed apart in the source
Note: call rule not given here.

Bacterial Biotransformation [1]: Compound NOT metabolized
Bacterial Biotransformation [2]: Compound metabolized
Bacterial Biotransformation [3]: Compound metabolized
Bacterial Biotransformation [4]: Compound metabolized
Bacterial Biotransformation [5]: Compound metabolized
Bacterial Biotransformation [6]: Compound metabolized
Bacterial Biotransformation [7]: Compound metabolized
Bacterial Biotransformation [8]: Compound metabolized
Bacterial Biotransformation [9]: Compound metabolized
Bacterial Biotransformation [10]: Compound metabolized
Bacterial Biotransformation [11]: Compound NOT metabolized
Bacterial Biotransformation [12]: Compound metabolized
Bacterial Biotransformation [13]: Compound metabolized
Bacterial Biotransformation [14]: Compound metabolized
Bacterial Biotransformation [15]: Compound metabolized
Bacterial Biotransformation [16]: Compound metabolized
Bacterial Biotransformation [17]: Compound metabolized
Bacterial Biotransformation [18]: Compound NOT metabolized
Bacterial Biotransformation [19]: Compound NOT metabolized
Bacterial Biotransformation [20]: Compound metabolized
Bacterial Biotransformation [21]: Compound NOT metabolized
Bacterial Biotransformation [22]: Compound NOT metabolized
Bacterial Biotransformation [23]: Compound NOT metabolized
Bacterial Biotransformation [24]: Compound metabolized
Bacterial Biotransformation [25]: Compound NOT metabolized
Bacterial Biotransformation [26]: Compound NOT metabolized
Bacterial Biotransformation [27]: Compound NOT metabolized
Bacterial Biotransformation [28]: Compound NOT metabolized
Bacterial Biotransformation [29]: Compound NOT metabolized
Bacterial Biotransformation [30]: Compound metabolized
Bacterial Biotransformation [31]: Compound NOT metabolized
Bacterial Biotransformation [32]: Compound NOT metabolized
Bacterial Biotransformation [33]: Compound NOT metabolized
Bacterial Biotransformation [34]: Compound metabolized
Bacterial Biotransformation [35]: Compound NOT metabolized
Bacterial Biotransformation [36]: Compound metabolized
Bacterial Biotransformation [37]: Compound NOT metabolized
Bacterial Biotransformation [38]: Compound NOT metabolized
Bacterial Biotransformation [39]: Compound NOT metabolized
Bacterial Biotransformation [40]: Compound NOT metabolized
Bacterial Biotransformation [41]: Compound metabolized
Bacterial Biotransformation [42]: Compound metabolized
Bacterial Biotransformation [43]: Compound NOT metabolized
Bacterial Biotransformation [44]: Compound metabolized
Bacterial Biotransformation [45]: Compound metabolized
Bacterial Biotransformation [46]: Compound metabolized
Bacterial Biotransformation [47]: Compound metabolized
Bacterial Biotransformation [48]: Compound metabolized
Bacterial Biotransformation [49]: Compound metabolized
Bacterial Biotransformation [50]: Compound metabolized
Bacterial Biotransformation [51]: Compound metabolized
Bacterial Biotransformation [52]: Compound metabolized
Bacterial Biotransformation [53]: Compound metabolized
Bacterial Biotransformation [54]: Compound metabolized
Bacterial Biotransformation [55]: Compound NOT metabolized
Bacterial Biotransformation [56]: Compound NOT metabolized
Bacterial Biotransformation [57]: Compound metabolized
Bacterial Biotransformation [58]: Compound metabolized
Bacterial Biotransformation [59]: Compound metabolized
Bacterial Biotransformation [60]: Compound metabolized
Structure (SMILES): CS(=O)(=O)O.O.O.O.O=C1Cc2cc(CCN3CCN(c4nsc5ccccc45)CC3)c(Cl)cc2N1 [ZIPRASIDONE MESYLATE]

Bacterial Biotransformation [1]: Compound metabolized
Bacterial Biotransformation [2]: Compound metabolized
Bacterial Biotransformation [3]: Compound metabolized
Bacterial Biotransformation [4]: Compound metabolized
Bacterial Biotransformation [5]: Compound metabolized
Bacterial Biotransformation [6]: Compound metabolized
Bacterial Biotransformation [7]: Compound metabolized
Bacterial Biotransformation [8]: Compound metabolized
Bacterial Biotransformation [9]: Compound metabolized
Bacterial Biotransformation [10]: Compound metabolized
Bacterial Biotransformation [11]: Compound metabolized
Bacterial Biotransformation [12]: Compound metabolized
Bacterial Biotransformation [13]: Compound metabolized
Bacterial Biotransformation [14]: Compound metabolized
Bacterial Biotransformation [15]: Compound metabolized
Bacterial Biotransformation [16]: Compound metabolized
Bacterial Biotransformation [17]: Compound metabolized
Bacterial Biotransformation [18]: Compound metabolized
Bacterial Biotransformation [19]: Compound NOT metabolized
Bacterial Biotransformation [20]: Compound metabolized
Bacterial Biotransformation [21]: Compound metabolized
Bacterial Biotransformation [22]: Compound metabolized
Bacterial Biotransformation [23]: Compound metabolized
Bacterial Biotransformation [24]: Compound metabolized
Bacterial Biotransformation [25]: Compound metabolized
Bacterial Biotransformation [26]: Compound metabolized
Bacterial Biotransformation [27]: Compound metabolized
Bacterial Biotransformation [28]: Compound metabolized
Bacterial Biotransformation [29]: Compound NOT metabolized
Bacterial Biotransformation [30]: Compound metabolized
Bacterial Biotransformation [31]: Compound metabolized
Bacterial Biotransformation [32]: Compound metabolized
Bacterial Biotransformation [33]: Compound NOT metabolized
Bacterial Biotransformation [34]: Compound metabolized
Bacterial Biotransformation [35]: Compound metabolized
Bacterial Biotransformation [36]: Compound metabolized
Bacterial Biotransformation [37]: Compound metabolized
Bacterial Biotransformation [38]: Compound metabolized
Bacterial Biotransformation [39]: Compound metabolized
Bacterial Biotransformation [40]: Compound metabolized
Bacterial Biotransformation [41]: Compound NOT metabolized
Bacterial Biotransformation [42]: Compound metabolized
Bacterial Biotransformation [43]: Compound metabolized
Bacterial Biotransformation [44]: Compound metabolized
Bacterial Biotransformation [45]: Compound metabolized
Bacterial Biotransformation [46]: Compound metabolized
Bacterial Biotransformation [47]: Compound metabolized
Bacterial Biotransformation [48]: Compound metabolized
Bacterial Biotransformation [49]: Compound metabolized
Bacterial Biotransformation [50]: Compound metabolized
Bacterial Biotransformation [51]: Compound metabolized
Bacterial Biotransformation [52]: Compound metabolized
Bacterial Biotransformation [53]: Compound metabolized
Bacterial Biotransformation [54]: Compound metabolized
Bacterial Biotransformation [55]: Compound NOT metabolized
Bacterial Biotransformation [56]: Compound NOT metabolized
Bacterial Biotransformation [57]: Compound metabolized
Bacterial Biotransformation [58]: Compound metabolized
Bacterial Biotransformation [59]: Compound metabolized
Bacterial Biotransformation [60]: Compound metabolized
Structure (SMILES): CN(C(=O)CN(CCO)CC(=O)N(C)C(C)(C)Cc1ccccc1)C(C)(C)Cc1ccccc1 [OXETHAZAINE]
